17 molecules from US8193362B2 (Syngenta Crop Protection LLC, priority 2008, dated 2012) can be followed below.

What all share (format): in vivo
The subject of assay [1] is Heliothis virescens (Tobacco Budworm). As to the kind of experiment: Heliothis virescens egg test on artificial diet in 24-well microtiter plate. Conditions: 96 h, 200 ppm (concentration in well 18 ppm), eggs 0-24 h old, 4 days, egg mortality, larval mortality, growth regulation. The procedure: (§1) Heliothis virescens (Tobacco Budworm):
Eggs (0-24 h old) were placed in 24-well microtiter plate on artificial diet and treated with test solutions at an application rate of 200 ppm (concentration in well 18 ppm) by pipetting. After an incubation period of 4 days, samples were checked for egg mortality, larval mortality and growth regulation.

Assay [2] concerns Plutella xylostella (Diamond Back Moth). Briefly: Plutella xylostella L2 larvae test on artificial diet in 24-well microtiter plate. Conditions: 144 h, 200 ppm (concentration in well 18 ppm), 6 days, larval mortality, growth regulation. Here is the method:
Plutella xylostella (Diamond Back Moth):
A 24-well microtiter plate (MTP) with artificial diet was treated with test solutions at an application rate of 200 ppm (concentration in well 18 ppm) by pipetting. After drying, the MTP's were infested with L2 larvae (7-12 per well). After an incubation period of 6 days, samples were checked for larval mortality and growth regulation.

Assay [3] has as its system Spodoptera littoralis (Egyptian Cotton Leafworm). As to the kind of experiment: Spodoptera littoralis cotton leaf disc spray test. The following applies: foliar, 72 h, 200 ppm spray on cotton leaf discs, L1 larvae, mortality, feeding behavior, growth regulation 3 DAT. The text has this:
Spodoptera littoralis (Egyptian Cotton Leafworm)
Cotton leaf discs were placed on agar in a 24-well microtiter plate and sprayed with test solutions at an application rate of 200 ppm. After drying, the leaf discs were infested with 5 L1 larvae. The samples were checked for mortality, feeding behavior, and growth regulation 3 days after treatment (DAT).

Assay [4] has as its system Diabrotica balteata (Corn Root Worm). Briefly: Diabrotica balteata L2 larvae test on artificial diet in 24-well microtiter plate. Conditions: 120 h, 200 ppm (concentration in well 18 ppm), 5 days, larval mortality, growth regulation. The procedure:
Diabrotica balteata (Corn Root Worm):
A 24-well microtiter plate (MTP) with artificial diet was treated with test solutions at an application rate of 200 ppm (concentration in well 18 ppm) by pipetting. After drying, the MTP's were infested with larvae (L2) (6-10 per well). After an incubation period of 5 days, samples were checked for larval mortality, and growth regulation.

Assay [5] relates to Heliothis virescens (Tobacco Budworm). Briefly: Comparative Heliothis virescens egg test in petri dishes on artificial diet. Conditions: 144 h, 6 days incubation, read-out: percentage of dead larvae; for pest or weed control at 0.8 ppm: concentration 0.8 ppm; for pest or weed control at 1.5 ppm: concentration 1.5 ppm; for pest or weed control at 3 ppm: concentration 3 ppm; for pest or weed control at 6 ppm: concentration 6 ppm. The procedure: This Example illustrates the pesticidal/insecticidal properties of compounds of formula (I) compared to Comparative Compound A and Comparative Compound B. Comparative Compound A and Comparative Compound B were disclosed in WO 2006/003494.
as §1
Fresh eggs (0-24 h old) on filterpaper were placed in petri dishes on top of a layer of artificial diet and treated with diluted test solutions by pipetting. After an incubation period of 6 days, samples were checked for larval mortality and growth regulation. The percentage of dead larvae was assessed.

Counter-ions that a name gives are not always drawn.

On to `O=C(Nc1c(F)cc(C(F)(F)F)nc1C1CCN(C/C=C/c2ccc(Cl)cc2)CC1)c1ccnc(Cl)c1` [Compound K1, 2-chloro-N-{1′-[(E)-3-(4-chloro-phenyl)-allyl]-4-fluoro-6-trifluoromethyl-1′,2′,3′,4′,5′,6′-hexahydro-[2,4′]bipyridinyl-3-yl}-isonicotinamide], for which the pest or weed control at 200 ppm in assay [1], in assay [2] and in assay [3] was ≥ 80% in each case.
For `O=C(Nc1cc(C(F)(F)F)c(F)nc1C1CCN(C/C=C/c2ccc(Cl)cc2)CC1)c1ccnc(Cl)c1` [Compound M1, 2-chloro-N-{1′-[(E)-3-(4-chloro-phenyl)-allyl]-6-fluoro-5-trifluoromethyl-1′,2′,3′,4′,5′,6′-hexahydro-[2,4′]bipyridinyl-3-yl}-isonicotinamide], the pest or weed control at 200 ppm in assay [1], in assay [2], in assay [3] and in assay [4] was ≥ 80% each time.
As for `O=C(Nc1ccc(C(F)(F)F)nc1C1CC[N+]([O-])(C/C=C/c2ccc(Cl)cc2)CC1)c1ccnc(Cl)c1` (centres unmarked) [Compound R1], the pest or weed control at 200 ppm in assay [1], in assay [2], in assay [3] (in Gossypium hirsutum) and in assay [4] (in Zea mays) was ≥ 80% in each case.
Turning to `O=C(Nc1cc(F)c(F)nc1C1CCN(C/C=C/c2ccc(Cl)cc2)CC1)c1ccnc(Cl)c1` [Compound N1, 2-chloro-N-{1′-[(E)-3-(4-chloro-phenyl)-allyl]-5,6-difluoro-1′,2′,3′,4′,5′,6′-hexahydro-[2,4′]bipyridinyl-3-yl}-isonicotinamide], the pest or weed control at 200 ppm in assay [1], in assay [2], in assay [3] and in assay [4] was ≥ 80% in each case.
Regarding `O=C(Nc1cc(C(F)(F)F)c(Cl)nc1C1CC[N+]([O-])(C/C=C/c2ccc(Br)cc2)CC1)c1ccnc(Cl)c1` (centres unmarked) [Compound R4], the pest or weed control at 200 ppm in assay [1], in assay [2] and in assay [3] was ≥ 80% throughout.
As to `O=C(Nc1ccc(C(F)F)nc1C1CCN(C/C=C/c2ccc(Cl)cc2)CC1)c1ccnc(Cl)c1` [Compound O1, 2-chloro-N-{1′-[(E)-3-(4-chloro-phenyl)-allyl]-6-difluoromethyl-1′,2′,3′,4′,5′,6′-hexahydro-[2,4]bipyridinyl-3-yl}-isonicotinamide], the pest or weed control at 200 ppm in assay [1], in assay [2] and in assay [3] was ≥ 80% each time.
`O=C(Nc1cc(Cl)cnc1C1CCN(C/C=C/c2ccc(Cl)cc2)CC1)c1ccnc(Cl)c1` [Comparative Compound B, reference compound]: in assay [5], the pest or weed control at 0.8 ppm amounted to 0%, the pest or weed control at 1.5 ppm turned out to be 50%, the pest or weed control at 3 ppm came to 93% and the pest or weed control at 6 ppm is 100%.
Turning to `O=C(Nc1ccc(C(F)(F)F)nc1C1CCN(C/C=C/c2ccc(Cl)cc2)CC1)c1ccnc(Cl)c1` [Compound A14, 2-chloro-N-{1′-[(E)-3-(4-chloro-phenyl)-allyl]-6-trifluoromethyl-1′,2′,3′,4′,5′,6′-hexahydro-[2,4′]bipyridinyl-3-yl}-isonicotinamide], in assay [5], the pest or weed control at 0.8 ppm came out at 100%, the pest or weed control at 1.5 ppm worked out at 100%, the pest or weed control at 3 ppm stood at 100% and the pest or weed control at 6 ppm worked out at 100%. Also, the pest or weed control at 200 ppm in assay [3] was ≥ 80%.
For `O=C(Nc1ccc(C(F)(F)F)nc1C1CCN(C/C=C/c2ccc(Cl)cc2)CC1)c1ccnc(Cl)c1` [Compound Q1, 2-chloro-N-{1′-[(E)-3-(4-chloro-phenyl)-allyl]-6-trifluoromethyl-1′,2′,3′,4′,5′,6′-hexahydro-[2,4′]bipyridinyl-3-yl}-isonicotinamide 2-ethyl-hexanoic acid salt], the pest or weed control at 200 ppm in assay [1], in assay [2] and in assay [4] was ≥ 80% throughout.
In the case of `O=C(Nc1cc(Cl)c(Cl)nc1C1CC[N+]([O-])(C/C=C/c2ccc(Cl)cc2)CC1)c1ccnc(Cl)c1` (centres unmarked) [Compound R2], the pest or weed control at 200 ppm in assay [1], in assay [2], in assay [3] and in assay [4] was ≥ 80% in each case.
Regarding `O=C(Nc1ccc(Cl)nc1C1CCN(C/C=C/c2ccc(Cl)cc2)CC1)c1ccnc(Cl)c1` [Comparative Compound A, reference compound], in assay [5], the pest or weed control at 0.8 ppm was 30%, the pest or weed control at 1.5 ppm amounted to 50%, the pest or weed control at 3 ppm stood at 70% and the pest or weed control at 6 ppm came out at 93%.
In the case of `O=C(Nc1ccc(C(F)(F)F)nc1C1CC[N+]([O-])(C/C=C/c2ccc(C(F)(F)F)cc2)CC1)c1ccnc(Cl)c1` (centres unmarked) [Compound R3], the pest or weed control at 200 ppm in assay [1], in assay [2], in assay [3] and in assay [4] was ≥ 80% in each case.
In the case of `O=C(Nc1c(C2CCN(C/C=C/c3ccc(Cl)cc3)CC2)nc(Cl)c(Cl)c1Cl)c1ccnc(Cl)c1` [Compound J1, 2-chloro-N-{4,5,6-trichloro-1′-[(E)-3-(4-chlorophenyl)-allyl]-1′,2′,3′,4′,5′,6′-hexahydro-[2,4′]bipyridinyl-3-yl}-isonicotinamide], in assay [1], the pest or weed control at 200 ppm was ≥ 80%. Moreover, in assay [5], the pest or weed control at 0.8 ppm was 40%, the pest or weed control at 1.5 ppm was determined as 90%, the pest or weed control at 3 ppm is 93% and the pest or weed control at 6 ppm turned out to be 100%. Moreover, the pest or weed control at 200 ppm in assay [2] is ≥ 80%. In assay [3], the pest or weed control at 200 ppm was ≥ 80%.
In the case of `O=C(Nc1cc(Cl)c(Cl)nc1C1CCN(C/C=C/c2ccc(Cl)cc2)CC1)c1ccnc(Cl)c1` [Compound Q20], the pest or weed control at 200 ppm in assay [1] and in assay [2] was ≥ 80% throughout.
On to `O=C(Nc1ccc(OC(F)F)nc1C1CCN(C/C=C/c2ccc(Cl)cc2)CC1)c1ccnc(Cl)c1` [Compound P1, 2-chloro-N-{1′-[(E)-3-(4-chloro-phenyl)-allyl]-6-difluoromethoxy-1′,2′,3′,4′,5′,6′-hexahydro-[2,4′]bipyridinyl-3-yl}-isonicotinamide], for which the pest or weed control at 200 ppm in assay [1], in assay [2], in assay [3] and in assay [4] was ≥ 80% throughout.
As for `O=C(Nc1cc(Cl)c(Cl)nc1C1CCN(C/C=C/c2ccc(Cl)cc2)CC1)c1ccnc(Cl)c1` [Compound C1, 2-chloro-N-{5,6-dichloro-1′-[(E)-3-(4-chloro-phenyl)-allyl]-1′,2′,3′,4′,5′,6′-hexahydro-[2,4′]bipyridinyl-3-yl}-isonicotinamide], in assay [5], the pest or weed control at 0.8 ppm was 100%, the pest or weed control at 1.5 ppm was found to be 100%, the pest or weed control at 3 ppm came out at 100% and the pest or weed control at 6 ppm was determined as 100%. Besides, in assay [3], the pest or weed control at 200 ppm was ≥ 80%. Moreover, the pest or weed control at 200 ppm in assay [4] is ≥ 80%.
For the molecule `O=C(Nc1cc(Cl)c(C(F)(F)F)nc1C1CCN(C/C=C/c2ccc(Cl)cc2)CC1)c1ccnc(Cl)c1` [Compound H1, 2-chloro-N-{5-chloro-1′-[(E)-3-(4-chloro-phenyl)-allyl]-6-trifluoromethyl-1′,2′,3′,4′,5′,6′-hexahydro-[2,4′]bipyridinyl-3-yl}-isonicotinamide], the pest or weed control at 200 ppm in assay [1] is ≥ 80%. In addition, in assay [5], the pest or weed control at 0.8 ppm stood at 40%, the pest or weed control at 1.5 ppm is 78%, the pest or weed control at 3 ppm came to 100% and the pest or weed control at 6 ppm worked out at 100%. The pest or weed control at 200 ppm in assay [2] was ≥ 80%. For the same molecule, the pest or weed control at 200 ppm in assay [3] was ≥ 80%.
